Measurements: ChEMBL document CHEMBL1148480, “Structure-activity studies of orexin a and orexin B at the human orexin 1 and orexin 2 receptors led to orexin 2 receptor selective and orexin 1 receptor preferring ligands” (J Med Chem, 2004)
Residues, ends and D or L forms follow the SMILES beside them.

assay: Ratio of orexin-1 receptor to orexin-2 receptor in human

Structure (SMILES)	Ratio
CC[C@H](C)[C@H](NC(=O)CNC(=O)[C@H](C)NC(=O)[C@@H]1CCCN1C(=O)[C@H](Cc1c[nH]cn1)NC(=O)[C@H](CC(N)=O)NC(=O)CNC(=O)[C@H](CO)NC(=O)[C@H](C)NC(=O)[C@H](CCC(N)=O)NC(=O)[C@H](CC(C)C)NC(=O)[C@H](CC(C)C)NC(=O)[C@H](CCCN=C(N)N)NC(=O)[C@H](CCC(N)=O)NC(=O)[C@H](CC(C)C)NC(=O)[C@H](CCCN=C(N)N)NC(=O)CNC(=O)[C@H](CCC(N)=O)NC(=O)[C@H](CC(C)C)NC(=O)CN)C(=O)N[C@@H](CC(C)C)C(=O)N[C@H](C(=O)N[C@@H](CCSC)C(=O)O)[C@@H](C)O (H-GLQGRLQRLLQASGNHPAGILTM-OH)	> 230
CC[C@H](C)[C@H](NC(=O)CNC(=O)[C@H](C)NC(=O)[C@H](C)NC(=O)[C@H](Cc1c[nH]cn1)NC(=O)[C@H](CC(N)=O)NC(=O)CNC(=O)[C@H](CO)NC(=O)[C@H](C)NC(=O)[C@H](CCC(N)=O)NC(=O)[C@H](CC(C)C)NC(=O)[C@H](CC(C)C)NC(=O)[C@H](CCCN=C(N)N)NC(=O)[C@@H]1CCCN1C(=O)[C@H](CC(C)C)NC(=O)[C@H](CCCN=C(N)N)NC(=O)CNC(=O)[C@H](CCC(N)=O)NC(=O)[C@H](CC(C)C)NC(=O)CN)C(=O)N[C@@H](CC(C)C)C(=O)N[C@H](C(=O)N[C@@H](CCSC)C(=O)O)[C@@H](C)O (stereo in doubt; form 1)	18.8
CC[C@H](C)[C@H](NC(=O)CNC(=O)[C@H](C)NC(=O)[C@H](C)NC(=O)[C@H](Cc1c[nH]cn1)NC(=O)[C@H](CC(N)=O)NC(=O)CNC(=O)[C@H](CO)NC(=O)[C@H](C)NC(=O)[C@H](CCC(N)=O)NC(=O)[C@H](CC(C)C)NC(=O)[C@H](CC(C)C)NC(=O)[C@H](CCCN=C(N)N)NC(=O)[C@H](CCC(N)=O)NC(=O)[C@H](CC(C)C)NC(=O)[C@H](CCCN=C(N)N)NC(=O)CNC(=O)[C@H](CCC(N)=O)NC(=O)[C@@H]1CCCN1C(=O)CN)C(=O)N[C@@H](CC(C)C)C(=O)N[C@H](C(=O)N[C@@H](CCSC)C(=O)O)[C@@H](C)O (H-GPQGRLQRLLQASGNHAAGILTM-OH)	28.3
CC[C@H](C)[C@H](NC(=O)CNC(=O)[C@H](C)NC(=O)[C@H](C)NC(=O)[C@H](Cc1c[nH]cn1)NC(=O)[C@H](CC(N)=O)NC(=O)CNC(=O)[C@H](C)NC(=O)CNC(=O)[C@H](Cc1c[nH]cn1)NC(=O)[C@H](CC(C)C)NC(=O)[C@H](CC(C)C)NC(=O)[C@H](CCC(=O)O)NC(=O)[C@H](Cc1ccc(O)cc1)NC(=O)[C@H](CC(C)C)NC(=O)[C@H](CCCN=C(N)N)NC(=O)[C@H](CSSC[C@H](NC(=O)[C@@H](N)CO)C(=O)N[C@@H](CCCN=C(N)N)C(=O)N[C@@H](CC(C)C)C(=O)N[C@@H](Cc1ccc(O)cc1)C(=O)N[C@@H](CCC(=O)O)C(=O)N[C@@H](CC(C)C)C(=O)N[C@@H](CC(C)C)C(=O)N[C@@H](Cc1c[nH]cn1)C(=O)NCC(=O)N[C@@H](C)C(=O)NCC(=O)N[C@@H](CC(N)=O)C(=O)N[C@@H](Cc1c[nH]cn1)C(=O)N[C@@H](C)C(=O)N[C@@H](C)C(=O)NCC(=O)N[C@H](C(=O)N[C@@H](CC(C)C)C(=O)N[C@H](C(=O)N[C@@H](CC(C)C)C(=O)O)[C@@H](C)O)[C@@H](C)CC)NC(=O)[C@@H](N)CO)C(=O)N[C@@H](CC(C)C)C(=O)N[C@H](C(=O)N[C@@H](CC(C)C)C(=O)O)[C@@H](C)O	2.9
CC[C@H](C)[C@H](NC(=O)CNC(=O)[C@H](C)NC(=O)[C@H](C)NC(=O)[C@H](Cc1c[nH]cn1)NC(=O)[C@H](CC(N)=O)NC(=O)CNC(=O)[C@H](CO)NC(=O)[C@H](C)NC(=O)[C@H](CCC(N)=O)NC(=O)[C@H](CC(C)C)NC(=O)[C@H](CC(C)C)NC(=O)[C@H](CCCN=C(N)N)NC(=O)[C@@H]1CCCN1C(=O)[C@H](CC(C)C)NC(=O)[C@H](CCCN=C(N)N)NC(=O)CNC(=O)[C@H](CCC(N)=O)NC(=O)[C@H](CC(C)C)NC(=O)CN)C(=O)N[C@@H](CC(C)C)C(=O)N[C@H](C(=O)N[C@@H](CCSC)C(=O)O)[C@@H](C)O (stereo in doubt; form 2)	15
CC[C@H](C)[C@H](NC(=O)CNC(=O)[C@H](C)NC(=O)[C@H](C)NC(=O)[C@H](Cc1c[nH]cn1)NC(=O)[C@H](CC(N)=O)NC(=O)CNC(=O)[C@H](CO)NC(=O)[C@H](C)NC(=O)[C@H](CCC(N)=O)NC(=O)[C@H](CC(C)C)NC(=O)[C@H](CC(C)C)NC(=O)[C@H](CCCN=C(N)N)NC(=O)[C@H](CCC(N)=O)NC(=O)[C@H](CC(C)C)NC(=O)[C@H](CCCN=C(N)N)NC(=O)CNC(=O)[C@H](CCC(N)=O)NC(=O)[C@H](CC(C)C)NC(=O)CN)C(=O)N[C@@H](C)C(=O)N[C@H](C(=O)N[C@@H](CCSC)C(=O)O)[C@@H](C)O (H-GLQGRLQRLLQASGNHAAGIATM-OH)	> 65
CC[C@H](C)[C@H](NC(=O)CNC(=O)[C@H](C)NC(=O)[C@H](C)NC(=O)[C@H](Cc1c[nH]cn1)NC(=O)[C@H](CC(N)=O)NC(=O)CNC(=O)[C@H](CO)NC(=O)[C@H](C)NC(=O)[C@H](CCC(N)=O)NC(=O)[C@H](C)NC(=O)[C@H](CC(C)C)NC(=O)[C@H](CCCN=C(N)N)NC(=O)[C@H](CCC(N)=O)NC(=O)[C@H](CC(C)C)NC(=O)[C@H](CCCN=C(N)N)NC(=O)CNC(=O)[C@H](CCC(N)=O)NC(=O)[C@H](CC(C)C)NC(=O)CN)C(=O)N[C@@H](CC(C)C)C(=O)N[C@H](C(=O)N[C@@H](CCSC)C(=O)O)[C@@H](C)O (H-GLQGRLQRLAQASGNHAAGILTM-OH)	> 430
CC[C@H](C)[C@H](NC(=O)CNC(=O)[C@H](C)NC(=O)[C@H](C)NC(=O)[C@H](Cc1c[nH]cn1)NC(=O)[C@H](CC(N)=O)NC(=O)CNC(=O)[C@H](CO)NC(=O)[C@H](C)NC(=O)[C@H](CCC(N)=O)NC(=O)[C@H](CC(C)C)NC(=O)[C@H](CC(C)C)NC(=O)[C@H](CCCN=C(N)N)NC(=O)[C@H](CCC(N)=O)NC(=O)[C@H](CC(C)C)NC(=O)[C@H](CCCN=C(N)N)NC(=O)CNC(=O)[C@H](CCC(N)=O)NC(=O)[C@H](CC(C)C)NC(=O)CN)C(=O)N[C@@H](CC(C)C)C(=O)N1CCC[C@H]1C(=O)N[C@@H](CCSC)C(=O)O (H-GLQGRLQRLLQASGNHAAGILPM-OH)	> 375

Now from value to compound:

Ratio	Structure (SMILES)
2.3	CC[C@H](C)[C@H](NC(=O)CNC(=O)[C@H](C)NC(=O)[C@H](C)NC(=O)[C@H](Cc1c[nH]cn1)NC(=O)[C@H](CC(N)=O)NC(=O)CNC(=O)[C@H](C)NC(=O)CNC(=O)[C@H](Cc1c[nH]cn1)NC(=O)[C@H](CC(C)C)NC(=O)[C@H](CC(C)C)NC(=O)[C@H](CCC(=O)O)NC(=O)[C@H](Cc1ccc(O)cc1)NC(=O)[C@H](CC(C)C)NC(=O)[C@H](CCCN=C(N)N)NC(=O)[C@H](CS)NC(=O)[C@H](CO)NC(=O)[C@H](CS)NC(=O)[C@@H](NC(=O)[C@H](CCCCN)NC(=O)[C@H](CCC(N)=O)NC(=O)[C@@H](N)CCCN=C(N)N)[C@@H](C)O)C(=O)N[C@@H](CC(C)C)C(=O)N[C@H](C(=O)N[C@@H](CC(C)C)C(=O)O)[C@@H](C)O (H-RQKTCSCRLYELLHGAGNHAAGILTL-OH)
5.5	CC[C@H](C)[C@H](NC(=O)CNC(=O)[C@H](C)NC(=O)[C@H](C)NC(=O)[C@H](Cc1c[nH]cn1)NC(=O)[C@H](CC(N)=O)NC(=O)CNC(=O)[C@H](CO)NC(=O)[C@H](C)NC(=O)[C@H](CCC(N)=O)NC(=O)[C@H](CC(C)C)NC(=O)[C@H](CC(C)C)NC(=O)[C@H](CCCN=C(N)N)NC(=O)[C@H](CCC(N)=O)NC(=O)[C@H](CC(C)C)NC(=O)[C@H](CCCN=C(N)N)NC(=O)CNC(=O)[C@H](CCC(N)=O)NC(=O)[C@H](CC(C)C)NC(=O)[C@H](C)N)C(=O)N[C@@H](CC(C)C)C(=O)N[C@H](C(=O)N[C@@H](CCSC)C(=O)O)[C@@H](C)O (H-ALQGRLQRLLQASGNHAAGILTM-OH)
2.3	CC[C@H](C)[C@H](NC(=O)CNC(=O)[C@H](C)NC(=O)[C@H](C)NC(=O)[C@H](Cc1c[nH]cn1)NC(=O)[C@H](CC(N)=O)NC(=O)CNC(=O)[C@H](C)NC(=O)CNC(=O)[C@H](Cc1c[nH]cn1)NC(=O)[C@H](CC(C)C)NC(=O)[C@H](CC(C)C)NC(=O)[C@H](CCC(=O)O)NC(=O)[C@H](Cc1ccc(O)cc1)NC(=O)[C@H](CC(C)C)NC(=O)[C@H](CCCN=C(N)N)NC(=O)[C@H](CS)NC(=O)[C@@H](N)CO)C(=O)N[C@@H](CC(C)C)C(=O)N[C@H](C(=O)N[C@@H](CC(C)C)C(=O)O)[C@@H](C)O (H-SCRLYELLHGAGNHAAGILTL-OH)
4.3	CC[C@H](C)[C@H](NC(=O)CNC(=O)[C@H](C)NC(=O)[C@H](C)NC(=O)[C@H](Cc1c[nH]cn1)NC(=O)[C@H](CC(N)=O)NC(=O)CNC(=O)[C@H](C)NC(=O)CNC(=O)[C@H](Cc1c[nH]cn1)NC(=O)[C@H](CC(C)C)NC(=O)[C@H](CC(C)C)NC(=O)[C@H](CCC(=O)O)NC(=O)[C@H](Cc1ccc(O)cc1)NC(=O)[C@H](CC(C)C)NC(=O)[C@@H](N)CCCN=C(N)N)C(=O)N[C@@H](CC(C)C)C(=O)N[C@H](C(=O)N[C@@H](CC(C)C)C(=O)O)[C@@H](C)O (H-RLYELLHGAGNHAAGILTL-OH)
6.8	CC[C@H](C)[C@H](NC(=O)CNC(=O)[C@H](C)NC(=O)[C@H](C)NC(=O)[C@H](Cc1c[nH]cn1)NC(=O)[C@H](CC(N)=O)NC(=O)CNC(=O)[C@H](CO)NC(=O)[C@H](C)NC(=O)[C@H](CCC(N)=O)NC(=O)[C@H](CC(C)C)NC(=O)[C@H](CC(C)C)NC(=O)[C@H](CCCN=C(N)N)NC(=O)[C@H](CCC(N)=O)NC(=O)[C@H](CC(C)C)NC(=O)[C@H](CCCN=C(N)N)NC(=O)CNC(=O)[C@H](C)NC(=O)[C@H](CC(C)C)NC(=O)CN)C(=O)N[C@@H](CC(C)C)C(=O)N[C@H](C(=O)N[C@@H](CCSC)C(=O)O)[C@@H](C)O (H-GLAGRLQRLLQASGNHAAGILTM-OH)
6.8	CC[C@H](C)[C@H](NC(=O)CNC(=O)[C@H](C)NC(=O)[C@H](C)NC(=O)[C@H](Cc1c[nH]cn1)NC(=O)[C@H](C)NC(=O)CNC(=O)[C@H](CO)NC(=O)[C@H](C)NC(=O)[C@H](CCC(N)=O)NC(=O)[C@H](CC(C)C)NC(=O)[C@H](CC(C)C)NC(=O)[C@H](CCCN=C(N)N)NC(=O)[C@H](CCC(N)=O)NC(=O)[C@H](CC(C)C)NC(=O)[C@H](CCCN=C(N)N)NC(=O)CNC(=O)[C@H](CCC(N)=O)NC(=O)[C@H](CC(C)C)NC(=O)CN)C(=O)N[C@@H](CC(C)C)C(=O)N[C@H](C(=O)N[C@@H](CCSC)C(=O)O)[C@@H](C)O (stereo in doubt; form 2)
